From US8901035B2, “Herbicidal compositions comprising 4-amino-3-chloro-5-fluoro-6-(4-chloro-2-fluoro-3-methoxyphenyl) pyridine-2-carboxylic acid or a derivative thereof and cellulose biosynthesis inhibitor herbicides” (Dow AgroSciences LLC, priority 2012, dated 2014)

How the values were obtained:
Type in all cases: in vivo
Cyperus iria L. (CYPIR) = test: Postemergence foliar-applied herbicidal mixtures, weed control in direct seeded rice (greenhouse)
Text: (§1) Seeds or nutlets of the desired test plant species were planted in a soil matrix prepared by mixing a loam or sandy loam soil (e.g., 28.6 percent silt, 18.8 percent clay, and 52.6 percent sand, with a pH of about 5.8 and an organic matter content of about 1.8 percent) and calcareous grit in an 80 to 20 ratio. The soil matrix was contained in plastic pots with a volume of 1 quart and a surface area of 83.6 square centimeters (cm^2). When required to ensure good germination and healthy plants, a fungicide treatment and/or other chemical or physical treatment was applied. The plants were grown for 8-22 days in a greenhouse with an approximate 14 h photoperiod which was maintained at about 29° C. during the day and 26° C. during the night. Nutrients (Peters Excel® 15-5-15 5-Ca 2-Mg and iron chelate) were applied in the irrigation solution as needed and water was added on a regular basis. Supplemental lighting was provided with overhead metal halide 1000-Watt lamps as necessary. The plants were employed for testing when they reached the first through fourth true leaf stage.
(§2) Treatments consisted of the acid or esters of 4-amino-3-chloro-5-fluoro-6-(4-chloro-2-fluoro-3-methoxy-phenyl) pyridine-2-carboxylic acid (Compound A), each formulated as an SC (suspension concentrate), and various herbicidal components alone and in combination. Forms of compound A were applied on an acid equivalent basis.
(§3) Other herbicidal components were applied on an active ingredient basis and included cellulose biosynthesis-inhibiting (CBI) herbicides isoxaben formulated as Gallery® 75DF and indaziflam formulated as Specticle® 20WSP.
(§4) Treatment requirements were calculated based upon the rates being tested, the concentration of active ingredient or acid equivalent in the formulation, and a 12 mL application volume at a rate of 187 L/ha.
(§5) For treatments comprised of formulated compounds, measured amounts of compounds were placed individually in 25 mL glass vials and diluted in a volume of 1.25% (v/v) Agri-Dex® crop oil concentrated to obtain 12× stock solutions. […] Application solutions were prepared by adding an appropriate amount of each stock solution (e.g., 1 mL) and diluted to the appropriate final concentrations with the addition of 10 mL of an aqueous mixture of 1.25% (v/v) crop oil concentrate so that the final spray solutions contained 1.25+/−0.05% (v/v) crop oil concentrate.
(§6) All stock solutions and applications solutions were visually inspected for compound compatibility prior to application. Spray solutions were applied to the plant material with an overhead Mandel track sprayer equipped with a 8002E nozzles calibrated to deliver 187 L/ha over an application area of 0.503 m^2 at a spray height of 18 to 20 inches (46 to 50 cm) above average plant canopy height. Control plants were sprayed in the same manner with the solvent blank.
(§7) The treated plants and control plants were placed in a greenhouse as described above and watered by sub-irrigation to prevent wash-off of the test compounds. After approximately 3 weeks, the condition of the test plants as compared with that of the untreated plants was determined visually and scored on a scale of 0 to 100 percent where 0 corresponds to no injury or growth inhibition and 100 corresponds to complete kill.
(§8) Colby's equation was used to determine the herbicidal effects expected from the mixtures (Colby, S. R. 1967. Calculation of the synergistic and antagonistic response of herbicide combinations. Weeds 15:20-22).
(§9) The following equation was used to calculate the expected activity of mixtures containing two active ingredients, A and B: Expected=A+B−(A×B/100)
(§10) A=observed efficacy of active ingredient A at the same concentration as used in the mixture.
(§11) B=observed efficacy of active ingredient B at the same concentration as used in the mixture.

[1] = system: Leptochloa chinensis (L.) Nees (LEFCH); test: as above
Text: as §1, §2, §3, §4, §5, §6, §7, §8, §9, §10, §11

[2] = system: Ipomoea hederacea Jacq. (IPOHE); test: as above
Text: as §1, §2, §3, §4, §5, §6, §7, §8, §9, §10, §11

[3] = system: Brachiaria platyphylla (Griseb.) Nash or Urochloa platyphylla (Nash) R.D. Webster (BRAPP); test: as above
Text: as §1, §2, §3, §4, §5, §6, §7, §8, §9, §10, §11

[4] = system: Digitaria sanguinalis (L.) Scop. (DIGSA); test: as above
Text: as §1, §2, §3, §4, §5, §6, §7, §8, §9, §10, §11

[5] = system: Abutilon theophrasti Medik. (ABUTH); test: Pre-emergence soil-applied herbicidal mixtures for weed control (greenhouse)
Text: Seeds or nutlets of the desired test plant species were planted in a soil matrix prepared by mixing a loam soil (e.g., 32 percent silt, 23 percent clay, and 45 percent sand, with a pH of about 6.5 and an organic matter content of about 1.9 percent) and calcareous grit in an 80 to 20 ratio. The soil matrix was contained in plastic pots with a volume of 1 quart and a surface area of 83.6 square centimeters (cm^2).
Treatments consisted of the benzyl ester of 4-amino-3-chloro-5-fluoro-6-(4-chloro-2-fluoro-3-methoxy-phenyl)pyridine-2-carboxylic acid (compound A) formulated as an SC (suspension concentrate) and various herbicidal components alone and in combination. Forms of compound A were applied on an acid equivalent basis.
Other herbicidal components were applied on an acid equivalent or active ingredient basis and included the cellulose biosynthesis inhibiting herbicides, isoxaben formulated as Gallery® 75DF and indaziflam formulated as Specticle® 20WSP.
as §4
as §5, with “oil concentrate (COC)” for “oil concentrated”, “(v/v) COC” for “(v/v) crop oil concentrate”, “contained 1.25%” for “contained 1.25+/−0.05%”, “(v/v) COC.” for “(v/v) crop oil concentrate.”
as §6, with “soil” for “plant material”, “18” for “18 to 20”, “(46” for “(46 to 50”, “pot” for “plant canopy”, “pots” for “plants”
The treated and control pots were placed in a greenhouse and top watered as needed. When required to ensure good germination and healthy plants, a fungicide treatment and/or other chemical or physical treatment was applied. The pots were maintained in a greenhouse with an approximate 14 hr. photoperiod which was maintained at about 29° C. during the day and 26° C. during the night. Nutrients (Peters® Excel 15-5-15 5-Ca 2-Mg) were applied in the irrigation solution as needed and water was added on a regular basis. Supplemental lighting was provided with overhead metal halide 1000-Watt lamps as necessary. After approximately 4 weeks, the condition of the test plants as compared with that of the untreated plants was determined visually and scored on a scale of 0 to 100 percent where 0 corresponds to no injury or growth inhibition and 100 corresponds to complete kill.
as §8, §9, §10, §11

[6] = Compound A Benzyl Ester 4.38 g ae/ha alone
[7] = Compound A Benzyl Ester 8.75 g ae/ha alone
[8] = Compound A Benzyl Ester 17.5 g ae/ha alone

COc1c(Cl)ccc(-c2nc(C(=O)OCc3ccccc3)c(Cl)c(N)c2F)c1F [Compound A Benzyl Ester, benzyl ester of 4-amino-3-chloro-5-fluoro-6-(4-chloro-2-fluoro-3-methoxy-phenyl)pyridine-2-carboxylic acid]
Visual Weed Control (%) - 20 DAA Obs (Cyperus iria L. (CYPIR); [6]): 70% | Visual Weed Control (%) - 21 DAA Obs [1, 6]: 30% | Visual Weed Control (%) - 21 DAA Obs [1, 7]: 35% | Visual Weed Control (%) - 21 DAA Obs [1, 8]: 35% | Visual Weed Control (%) - 20 DAA Obs [2, 6]: 10% | Visual Weed Control (%) - 20 DAA Obs [2, 7]: 10% | Visual Weed Control (%) - 20 DAA Obs [2, 8]: 15% | Visual Weed Control (%) - 20 DAA Obs [3, 6]: 70% | Visual Weed Control (%) - 20 DAA Obs [3, 7]: 80% | Visual Weed Control (%) - 20 DAA Obs [3, 8]: 90% | Visual Weed Control (%) - 21 DAA Obs [4, 6]: 10% | Visual Weed Control (%) - 20 DAA Obs [4, 7]: 30% | Visual Weed Control (%) - 21 DAA Obs [4, 7]: 45% | Visual Weed Control (%) - 20 DAA Obs [4, 8]: 30% | Visual Weed Control (%) - 21 DAA Obs [4, 8]: 70% | Visual Weed Control (%) - 27 DAA ABUTH Obs ([5]; Compound A Benzyl Ester 16 g ae/ha alone): 48% | Visual Weed Control (%) - 27 DAA ABUTH Obs ([5]; Compound A Benzyl Ester 32 g ae/ha alone): 87%

CCC(C)(CC)c1cc(NC(=O)c2c(OC)cccc2OC)on1 [Isoxaben, N-[3-(1-ethyl-1-methylpropyl)-5-isoxazolyl]-2,6-dimethoxybenzamide, reference compound]
Visual Weed Control (%) - 20 DAA Obs (Cyperus iria L. (CYPIR); Isoxaben 140 g ai/ha alone): 10% | Visual Weed Control (%) - 20 DAA Obs (Cyperus iria L. (CYPIR); Isoxaben 280 g ai/ha alone): 60% | Visual Weed Control (%) - 20 DAA Obs (Cyperus iria L. (CYPIR); Isoxaben 560 g ai/ha alone): 50% | Visual Weed Control (%) - 20 DAA Obs ([1]; Isoxaben 140 g ai/ha alone): 0% | Visual Weed Control (%) - 20 DAA Obs ([1]; Isoxaben 280 g ai/ha alone): 0% | Visual Weed Control (%) - 20 DAA Obs ([2]; Isoxaben 140 g ai/ha alone): 15% | Visual Weed Control (%) - 20 DAA Obs ([2]; Isoxaben 280 g ai/ha alone): 25% | Visual Weed Control (%) - 20 DAA Obs ([3]; Isoxaben 140 g ai/ha alone): 0% | Visual Weed Control (%) - 20 DAA Obs ([3]; Isoxaben 280 g ai/ha alone): 0% | Visual Weed Control (%) - 20 DAA Obs ([3]; Isoxaben 560 g ai/ha alone): 20% | Visual Weed Control (%) - 20 DAA Obs ([4]; Isoxaben 280 g ai/ha alone): 10% | Visual Weed Control (%) - 20 DAA Obs ([4]; Isoxaben 560 g ai/ha alone): 20% | Visual Weed Control (%) - 27 DAA ABUTH Obs ([5]; Isoxaben 560 g ai/ha alone): 77% | Visual Weed Control (%) - 27 DAA ABUTH Obs ([5]; Isoxaben 1120 g ai/ha alone): 67%
